In US5217952A, “Peptides WS-9326a and WS-9326b, derivatives thereof and uses thereof” (Fujisawa Pharmaceutical Co., Ltd., priority 1988, dated 1993):
Each block holds one compound with its values, some of them ahead of it. Numbered stars: 1 amine (or outer) side, 2 acyl side, 3 side chain; on linkers, the order of the positions; unused ones are H or OH. Bridge positions count the residues as written; N and C are the ends. Square brackets hold non-standard residues; d marks the D form. Peptide text beside a SMILES is read from it. * marks the point of attachment. Cinnamoyl(2-(1Z-pentenyl)) = CCC/C=C\c1ccccc1/C=C/C(=O)*; X1 = CN(/C(=C/c1ccc(O)cc1)C(=O)[*:2])[*:1]; NMeY = CN[C@@H](Cc1ccc(O)cc1)C(=O)O; aThr = C[C@H](O)[C@H](N)C(=O)O; X2 = CCCCCc1ccccc1CCC(=O)*

Experiments:
[1] = test system: contractile responses of guinea pig trachea induced by neurokinin A (NKA); test: Contractile response of guinea pig trachea induced by neurokinin A
Procedure: (§3) Tracheal spiral strips were prepared from adult, male, albino Hartley strain guinea pigs (600 g) according to standard technique and placed in jacketed 30 ml glass tissue bath. […] Tracheal strips (2 mm width and 50 mm length) were suspended under a resting tension of 500 mg in 30 ml organ baths containing warm (37° C.) oxygenated (95% O2 : 5% CO2) Tyrode solution of following composition: NaCl 137 mM (8 g/liter), KCl 2.7 mM (0.2 g/liter), CaCl2 ·2H2 O 1.8 mM (0.264 g/liter), MgCl2 ·6H2 O 1.02mM (0.208 g/liter), NaHCO3 11.9 mM (1 g/liter), NaH2 PO4 ·2H2 O 0.42 mM (0.066 g/liter) and glucose 5.5 mM (1 g/liter).

[2] = test system: neurokinin A induced bronchoconstriction; test: Neurokinin A induced bronchoconstriction, drug iv; type: in vivo, guinea-pigs; conditions: 10 mg/kg, n:5
Procedure: (§1) Male Hartley strain guinea-pigs weighing 300-500 g were immobilized with sodium pentobarbital (10 mg/animal administered intraperitoneally). The jugular vein was cannulated for administration of neurokinin A (or capsaicin) and drug. A catheter was also intubated into trachea for artifical ventilation. The animal was respirated by means of a miniature respiration pump (HARVARD B-34, 5 ml/stroke, 60 strokes/minute). Resistance to lung inflation was measured by a modification of Konzett-Rossler overflow technique.
(§2) Agonist was administered iv and the antagonist drug (prepared in 0.1% methyl cellulose-saline) was administered iv as shown below. [drawing 7]

[3] = Acute toxicity, single intraperitoneal injection; conditions: mouse, in vivo, ip, ddY mice, male
Procedure: Acute toxicity of WS-9326A was determined in ddY mice (5 weeks old, male) by a single intraperitoneal injection of graded dose of test compound into 5 mice.

[4] = test system: contractile responses of guinea pig trachea induced by substance P (SP); test: Contractile response of guinea pig trachea induced by substance P; conditions: for IC50: read-out: IC50 (M), SP 10^-8 M induced contraction
Procedure: as §3

[5] = test system: neurokinin A induced bronchoconstriction; test: Neurokinin A induced bronchoconstriction, intratrachea administration; type: in vivo, guinea-pigs; conditions: for Inhibition (%) of neurokinin A response / ED50 mg/kg, inhibition of neurokinin A response: NKA 1 n mol/kg iv; for Effect of intratrachea administration on neurokinin A induced bronchoconstriction (in words): dissolved in DMSO; for Effect of intratrachea administration on neurokinin A induced bronchoconstriction (in words) / ED50 mg/kg, inhibition of neurokinin A response: intratrachea
Procedure: as §1
The method was almost same as mentioned above.

[6] = test system: capsaicin induced bronchoconstriction; test: Capsaicin induced bronchoconstriction, drug iv; type: in vivo, guinea-pigs; conditions: 10 mg/kg, n:4
Procedure: as §1, §2

[7] = Solubility (physical and chemical properties); type: physicochemical
[8] = test system: acetic acid induced writhing; test: Analgesic action, acetic acid induced writhing; type: in vivo; conditions: male ddY mice; intraperitoneally 15 minutes before acetic acid
Procedure: Ten male ddY strain mice were used par group. To estimate the frequency of writhing syndrome, the animals were observed from 3 to 13 minutes after an intraperitoneal injection of 0.2 ml/10 g of 0.6% acetic acid. […] The frequency of writhing syndrome in the treated animals was compared with that in the non-treated control animals.

[9] = molecular target: T1, specific [^3 H] substance P binding to guinea pig lung membranes (Cavia porcellus, UniProt P30547); test: ^3H-Substance P binding to guinea pig lung membranes (radioligand binding assay); conditions: 3H-Substance P 1 nM, 4° C., 30 minutes, read-out: IC50 (M) lung, displacement of specific [3H] substance P binding
T1 construct: The trachea and lungs were removed, and stored at -80° C. until use; from tissue; host or cells: guinea pig trachea and lung crude membrane fraction
Procedure: Male albino Hartley strain guinea pigs (600 g) were sacrificed by decapitation. The trachea and lungs were removed, and stored at -80° C. until use. […] The tissue was homogenized with a Ultra-Disperser (YAMATO, MODEL LK-21) at a setting of maximum range for 10-s at 10-s intervals with cooling between homogenizations (total homogenization's time: 60 seconds). The homogenate was centrifuged (900×g for 10 min.) to remove tissue supernatant centrifuged at 14000×g for 20 min. to yield pellets which were referred to as crude membrane fractions. The pellets were resuspended in Medium I, homogenized with a teflon homogenizer and centrifuged at 14000×g for 20 min. The pellets were stored at -20° C.
^3 H-Substance P (1 nM, New England Nuclear) was incubated with 50 μl of the membrane preparation in medium I at 4° C. for 30 minutes in a final volume of 250 μl. At the end of the incubation period, its contents were quickly filtered over a whatmann GF/B glass fibre filter (pretreated with 0.1% polyethyleneimine for 3 hours prior to use) using cell harvester (BRANDEL M-24S). The filters were then washed ten times with a total of 3 ml of the washing buffer (50 mM Tris-HCl pH 7.5) at 0° C. The radioactivity was counted in 3 ml of Aquazol-2 in Packard sintillation counter (PACKARD TRI-CARB 4530).

[10] = intratrachea 0.03 mg/kg in DMSO, 20 minutes
[11] = intratrachea 0.03 mg/kg in DMSO, 35 minutes
[12] = intratrachea 0.03 mg/kg in DMSO, 50 minutes
[13] = intratrachea 0.03 mg/kg in DMSO, 65 minutes
[14] = intratrachea 0.3 mg/kg in DMSO, 20 minutes
[15] = intratrachea 0.3 mg/kg in DMSO, 35 minutes
[16] = intratrachea 0.3 mg/kg in DMSO, 50 minutes
[17] = intratrachea 0.3 mg/kg in DMSO, 65 minutes

T1 sequence (P30547 whole entry): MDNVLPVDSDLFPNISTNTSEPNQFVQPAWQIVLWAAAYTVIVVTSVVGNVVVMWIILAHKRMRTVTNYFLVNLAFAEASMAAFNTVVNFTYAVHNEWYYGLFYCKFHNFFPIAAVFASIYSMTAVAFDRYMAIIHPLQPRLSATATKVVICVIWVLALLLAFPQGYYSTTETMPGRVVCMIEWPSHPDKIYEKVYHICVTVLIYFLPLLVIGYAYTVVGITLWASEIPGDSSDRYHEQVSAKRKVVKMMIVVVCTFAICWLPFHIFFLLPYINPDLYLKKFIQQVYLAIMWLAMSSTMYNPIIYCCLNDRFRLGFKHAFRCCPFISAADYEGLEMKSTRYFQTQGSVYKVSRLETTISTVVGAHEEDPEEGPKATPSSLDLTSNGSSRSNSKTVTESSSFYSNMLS

SMILES: CCC/C=C\c1ccccc1/C=C/C(=O)N[C@@H]1C(=O)N(C)/C(=C/c2ccc(O)cc2)C(=O)N[C@@H](CC(C)C)C(=O)N[C@H](Cc2ccccc2)C(=O)N[C@@H]([C@H](C)O)C(=O)N[C@@H](CC(N)=O)C(=O)N[C@@H](CO)C(=O)O[C@@H]1C [WS-9326A] ({Cinnamoyl(2-(1Z-pentenyl))}-T[X1]L[dF][aThr]NS; ester 1-C; N-terminus assumed)
- Inhibition % NKA 10^-9 M ([1]; 3 μg/ml): 44%
- Inhibition % NKA 10^-9 M ([1]; 10 μg/ml): 79%
- Inhibition % NKA 10^-9 M ([1]; 30 μg/ml): 100%
- IC50 ([1]; read-out: IC50 (M), NKA 10^-9 M induced contraction): 3.5e-06 M
- Inhibition (%) of neurokinin A (1 n mol/kg, iv) response ([2]; 2 minutes): -16.5 ± 5.6%
- Inhibition (%) of neurokinin A (1 n mol/kg, iv) response ([2]; 17 minutes): 30.2 ± 12.9%
- Inhibition (%) of neurokinin A (1 n mol/kg, iv) response ([2]; 32 minutes): 45.8 ± 13.8%
- Inhibition (%) of neurokinin A (1 n mol/kg, iv) response ([2]; 47 minutes): 55.4 ± 8.1%
- Inhibition (%) of neurokinin A (1 n mol/kg, iv) response ([2]; 62 minutes): 49.9 ± 13.4%
- LD50 [3]: 250 to 500 mg/kg
- Inhibition % SP 10^-8 M ([4]; 3 μg/ml): -10%
- Inhibition % SP 10^-8 M ([4]; 10 μg/ml): 50%
- Inhibition % SP 10^-8 M ([4]; 30 μg/ml): 63%
- IC50 [4]: 9.7e-06 M
- Inhibition (%) of neurokinin A response [5, 10]: 32.3%
- Inhibition (%) of neurokinin A response [5, 11]: 28.4%
- Inhibition (%) of neurokinin A response [5, 12]: 35.6%
- Inhibition (%) of neurokinin A response [5, 13]: 35.5%
- Inhibition (%) of neurokinin A response [5, 14]: 50.6%
- Inhibition (%) of neurokinin A response [5, 15]: 42.4%
- Inhibition (%) of neurokinin A response [5, 16]: 44.9%
- Inhibition (%) of neurokinin A response [5, 17]: 42.0%
- Inhibition (%) of neurokinin A response ([5]; intratrachea 3 mg/kg in DMSO, 20 minutes): 73.4%
- Inhibition (%) of neurokinin A response ([5]; intratrachea 3 mg/kg in DMSO, 35 minutes): 79.4%
- Inhibition (%) of neurokinin A response ([5]; intratrachea 3 mg/kg in DMSO, 50 minutes): 81.7%
- Inhibition (%) of neurokinin A response ([5]; intratrachea 3 mg/kg in DMSO, 65 minutes): 77.7%
- Effect of intratrachea administration on neurokinin A induced bronchoconstriction (in words) [5]: highly potent
- ED50 mg/kg, inhibition of neurokinin A response ([5]; 20 minutes): 0.23 mg/kg
- ED50 mg/kg, inhibition of neurokinin A response ([5]; 35 minutes): 0.29 mg/kg
- ED50 mg/kg, inhibition of neurokinin A response ([5]; 50 minutes): 0.19 mg/kg
- ED50 mg/kg, inhibition of neurokinin A response ([5]; 65 minutes): 0.24 mg/kg
- Inhibition (%) of capsaicin (10 n mol/kg, iv) response ([6]; 2 minutes): 16.6 ± 5.1%
- Inhibition (%) of capsaicin (10 n mol/kg, iv) response ([6]; 17 minutes): 40.6 ± 12.2%
- Inhibition (%) of capsaicin (10 n mol/kg, iv) response ([6]; 32 minutes): 51.2 ± 10.4%
- Inhibition (%) of capsaicin (10 n mol/kg, iv) response ([6]; 47 minutes): 37.2 ± 19.7%
- Inhibition (%) of capsaicin (10 n mol/kg, iv) response ([6]; 62 minutes): 47.1 ± 16.7%
- Solubility ([7]; acetone): Sparingly Soluble
- Solubility ([7]; chloroform): Insoluble
- Solubility ([7]; ethanol): Soluble
- Solubility ([7]; ethyl acetate): Sparingly Soluble
- Solubility ([7]; methanol): Soluble
- Solubility ([7]; water): Insoluble

SMILES: CCCCCc1ccccc1CCC(=O)N[C@@H]1C(=O)N(C)/C(=C/c2ccc(O)cc2)C(=O)N[C@@H](CC(C)C)C(=O)N[C@H](Cc2ccccc2)C(=O)N[C@@H]([C@H](C)O)C(=O)N[C@@H](CC(N)=O)C(=O)N[C@@H](CO)C(=O)O[C@@H]1C [Tetrahydro-WS-9326A, tetrahydro-WS-9326A] (X2-T[X1]L[dF][aThr]NS; ester 1-C; N-terminus assumed)
- Inhibition (%) of neurokinin A (1 n mol/kg, iv) response ([2]; 2 minutes): 41.0 ± 5.6%
- Inhibition (%) of neurokinin A (1 n mol/kg, iv) response ([2]; 17 minutes): 100.0 ± 0.0%
- Inhibition (%) of neurokinin A (1 n mol/kg, iv) response ([2]; 32 minutes): 99.2 ± 0.8%
- Inhibition (%) of neurokinin A (1 n mol/kg, iv) response ([2]; 47 minutes): 98.4 ± 1.6%
- Inhibition (%) of neurokinin A (1 n mol/kg, iv) response ([2]; 62 minutes): 100.0 ± 0.0%
- ED50, acetic acid induced writhing [8]: 5.5 mg/kg
- IC50 [4]: 3.1e-06 M
- Inhibition (%) of neurokinin A response ([5]; intratrachea 0.003 mg/kg in DMSO, 20 minutes): 5.4%
- Inhibition (%) of neurokinin A response ([5]; intratrachea 0.003 mg/kg in DMSO, 35 minutes): 23.5%
- Inhibition (%) of neurokinin A response ([5]; intratrachea 0.003 mg/kg in DMSO, 50 minutes): 17.2%
- Inhibition (%) of neurokinin A response ([5]; intratrachea 0.003 mg/kg in DMSO, 65 minutes): 12.6%
- Inhibition (%) of neurokinin A response [5, 10]: 50.0%
- Inhibition (%) of neurokinin A response [5, 11]: 50.9%
- Inhibition (%) of neurokinin A response [5, 12]: 51.4%
- Inhibition (%) of neurokinin A response [5, 13]: 43.0%
- Inhibition (%) of neurokinin A response [5, 14]: 77.7%
- Inhibition (%) of neurokinin A response [5, 15]: 75.7%
- Inhibition (%) of neurokinin A response [5, 16]: 74.6%
- Inhibition (%) of neurokinin A response [5, 17]: 71.1%
- Effect of intratrachea administration on neurokinin A induced bronchoconstriction (in words) [5]: highly potent

- IC50 [9]: 8.8e-05 M
- Solubility ([7]; acetone): Insoluble
- Solubility ([7]; chloroform): Insoluble
- Solubility ([7]; ethanol): Sparingly Soluble
- Solubility ([7]; ethyl acetate): Insoluble
- Solubility ([7]; methanol): Soluble
- Solubility ([7]; water): Insoluble
SMILES: CCC/C=C\c1ccccc1/C=C/C(=O)N[C@@H]1C(=O)N(C)[C@@H](Cc2ccc(O)cc2)C(=O)N[C@@H](CC(C)C)C(=O)N[C@H](Cc2ccccc2)C(=O)N[C@@H]([C@H](C)O)C(=O)N[C@@H](CC(N)=O)C(=O)N[C@@H](CO)C(=O)O[C@@H]1C [WS-9326B] ({Cinnamoyl(2-(1Z-pentenyl))}-T[NMeY]L[dF][aThr]NS; ester 1-C)
